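These data come from cells grown in 96-well plates and exposed to compound for 48 hours at five concentrations. GI50: concentration for 50% inhibition of growth.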 Calls of active or inactive are those of the source. Rule as the data show it: active = GI50 up to about 1.1 µM and inactive = higher.
Legend:
Test in all cases: NCI anticancer screen, dose series, 48 h
OVCAR-8 = system: OVCAR-8
786-0 = system: 786-0
HCT-116 = system: HCT-116
UACC-257 = system: UACC-257
HT-29 = system: HT-29
NCI-H23 = system: NCI-H23
HCT-15 = system: HCT-15
SK-MEL-28 = system: SK-MEL-28
RXF 393 = system: RXF 393
RPMI-8226 = system: RPMI-8226
A549 = system: A549
SK-OV-3 = system: SK-OV-3
NCI-H226 = system: NCI-H226
SR = system: SR
Malme-3M = system: Malme-3M
SF-268 = system: SF-268

## Oc1ccc2occ3c2c1CCC3
OVCAR-8
  GI50: > 100 µM (inactive)
786-0
  GI50: > 100 µM (inactive)
HCT-116
  GI50: > 100 µM (inactive)
UACC-257
  GI50: > 100 µM (inactive)
HT-29
  GI50: > 100 µM (inactive)
NCI-H23
  GI50: > 100 µM (inactive)
HCT-15
  GI50: > 100 µM
SK-MEL-28
  GI50: > 100 µM (inactive)
RXF 393
  GI50: 75.2 µM (inactive)
RPMI-8226
  GI50: 98.4 µM (inactive)
A549
  GI50: > 100 µM (inactive)
SK-OV-3
  GI50: > 100 µM (inactive)

## COc1ccc(/C(=C/n2ccnc2)C(=O)c2ccc(OC)c(OC)c2)cc1
OVCAR-8
  GI50: > 100 µM (inactive)
NCI-H226
  GI50: > 100 µM (inactive)
786-0
  GI50: > 100 µM (inactive)
HCT-116
  GI50: > 100 µM (inactive)
UACC-257
  GI50: > 100 µM (inactive)
SR
  GI50: > 100 µM (inactive)
Malme-3M
  GI50: > 100 µM (inactive)
NCI-H23
  GI50: > 100 µM (inactive)
HCT-15
  GI50: > 100 µM
SK-MEL-28
  GI50: > 100 µM (inactive)
RPMI-8226
  GI50: > 100 µM (inactive)
SF-268
  GI50: > 100 µM (inactive)
A549
  GI50: > 100 µM (inactive)

## C=CCN1/C(=C2\SC(=S)N(c3ccc(C)cc3)C2=O)Sc2c1ncn(C)c2=O
OVCAR-8
  GI50: 95.1 µM (inactive)
NCI-H226
  GI50: 78.5 µM (inactive)
786-0
  GI50: 71.1 µM (inactive)
HCT-116
  GI50: > 100 µM (inactive)
UACC-257
  GI50: > 100 µM (inactive)
HT-29
  GI50: > 100 µM (inactive)
SR
  GI50: 84.7 µM (inactive)
NCI-H23
  GI50: > 100 µM (inactive)
HCT-15
  GI50: > 100 µM
RPMI-8226
  GI50: > 100 µM (inactive)
SF-268
  GI50: > 100 µM (inactive)
A549
  GI50: > 100 µM (inactive)
SK-OV-3
  GI50: > 100 µM (inactive)

## COC(=O)C(C(=O)C(=O)Nc1ccccc1C(C)=O)c1nc2ccc(Cl)cc2nc1O (stereo unspecified)
OVCAR-8
  GI50: > 100 µM (inactive)
NCI-H226
  GI50: 78.3 µM (inactive)
786-0
  GI50: > 100 µM (inactive)
HCT-116
  GI50: > 100 µM (inactive)
UACC-257
  GI50: > 100 µM (inactive)
HT-29
  GI50: > 100 µM (inactive)
Malme-3M
  GI50: > 100 µM (inactive)
NCI-H23
  GI50: > 100 µM (inactive)
HCT-15
  GI50: > 100 µM
SK-MEL-28
  GI50: > 100 µM (inactive)
RXF 393
  GI50: 89.7 µM (inactive)
RPMI-8226
  GI50: > 100 µM (inactive)
SF-268
  GI50: > 100 µM (inactive)
A549
  GI50: > 100 µM (inactive)
SK-OV-3
  GI50: > 100 µM (inactive)

## O=C1C(c2ccccc2)=C(c2ccccc2)C(c2ccc(Sc3ccc(C4=C(c5ccccc5)C(=O)C(c5ccccc5)=C4c4ccccc4)cc3)cc2)=C1c1ccccc1
OVCAR-8
  GI50: > 100 µM (inactive)
NCI-H226
  GI50: > 100 µM (inactive)
786-0
  GI50: > 100 µM (inactive)
HCT-116
  GI50: > 100 µM (inactive)
UACC-257
  GI50: > 100 µM (inactive)
HT-29
  GI50: > 100 µM (inactive)
SR
  GI50: > 100 µM (inactive)
Malme-3M
  GI50: > 100 µM (inactive)
NCI-H23
  GI50: > 100 µM (inactive)
HCT-15
  GI50: > 100 µM
RXF 393
  GI50: 64.9 µM (inactive)
RPMI-8226
  GI50: > 100 µM (inactive)
SF-268
  GI50: > 100 µM (inactive)
A549
  GI50: > 100 µM (inactive)
SK-OV-3
  GI50: > 100 µM (inactive)

## C(CCC[Te][Te]CCCCCCOC1CCCCO1)CCOC1CCCCO1 (stereo unspecified)
OVCAR-8
  GI50: 16 µM (inactive)
786-0
  GI50: 15.5 µM (inactive)
HCT-116
  GI50: 19.8 µM (inactive)
UACC-257
  GI50: 6.81 µM (inactive)
HT-29
  GI50: 12 µM (inactive)
SR
  GI50: 7.64 µM (inactive)
Malme-3M
  GI50: 6.44 µM (inactive)
NCI-H23
  GI50: 12.4 µM (inactive)
HCT-15
  GI50: 19.2 µM
SK-MEL-28
  GI50: 14.1 µM (inactive)
SF-268
  GI50: 16.6 µM (inactive)
A549
  GI50: 14.5 µM (inactive)
SK-OV-3
  GI50: 39.6 µM (inactive)

## CCOC(=O)C1=C(Nc2ccc(Cl)c(Cl)c2)OC/C1=N\NS(=O)(=O)c1ccc(C)cc1
OVCAR-8
  GI50: 75.2 µM (inactive)
NCI-H226
  GI50: 27.3 µM (inactive)
786-0
  GI50: > 100 µM (inactive)
HCT-116
  GI50: 22.8 µM (inactive)
UACC-257
  GI50: 18.2 µM (inactive)
Malme-3M
  GI50: 67.8 µM (inactive)
NCI-H23
  GI50: 34.7 µM (inactive)
SK-MEL-28
  GI50: 64.7 µM (inactive)
RXF 393
  GI50: 67.9 µM (inactive)
RPMI-8226
  GI50: 21.6 µM (inactive)
SF-268
  GI50: 45.8 µM (inactive)
A549
  GI50: 52.2 µM (inactive)
SK-OV-3
  GI50: 75.7 µM (inactive)

## CC(=O)N(/N=C\c1ccc([N+](=O)[O-])cc1)c1ccccc1
OVCAR-8
  GI50: > 100 µM (inactive)
NCI-H226
  GI50: > 100 µM (inactive)
786-0
  GI50: > 100 µM (inactive)
HCT-116
  GI50: > 100 µM (inactive)
UACC-257
  GI50: > 100 µM (inactive)
HT-29
  GI50: > 100 µM (inactive)
Malme-3M
  GI50: > 100 µM (inactive)
NCI-H23
  GI50: > 100 µM (inactive)
HCT-15
  GI50: > 100 µM
SK-MEL-28
  GI50: > 100 µM (inactive)
RPMI-8226
  GI50: > 100 µM (inactive)
SF-268
  GI50: > 100 µM (inactive)
A549
  GI50: > 100 µM (inactive)
SK-OV-3
  GI50: > 100 µM (inactive)

## CCN(CC)C(c1ccc(N(C)C)cc1)C(c1ccc(N(C)C)cc1)N(CC)CC (stereo unspecified)
OVCAR-8
  GI50: > 72.9 µM (inactive)
NCI-H226
  GI50: 27.3 µM (inactive)
786-0
  GI50: 61.2 µM (inactive)
HCT-116
  GI50: 35.2 µM (inactive)
UACC-257
  GI50: 36.6 µM (inactive)
HT-29
  GI50: 21.6 µM (inactive)
Malme-3M
  GI50: 17 µM (inactive)
NCI-H23
  GI50: 48.3 µM (inactive)
HCT-15
  GI50: 30.2 µM
SK-MEL-28
  GI50: 26.4 µM (inactive)
RXF 393
  GI50: 25.9 µM (inactive)
RPMI-8226
  GI50: 21.9 µM (inactive)
SF-268
  GI50: 65 µM (inactive)
A549
  GI50: > 72.9 µM (inactive)
SK-OV-3
  GI50: > 72.9 µM (inactive)

## O=C1c2cccc([N+](=O)[O-])c2C(=O)c2nccnc21
OVCAR-8
  GI50: 2.25 µM (inactive)
NCI-H226
  GI50: 1.94 µM (inactive)
786-0
  GI50: 1.78 µM (inactive)
HCT-116
  GI50: 1.63 µM (inactive)
UACC-257
  GI50: 0.502 µM (active)
HT-29
  GI50: 2.25 µM (inactive)
SR
  GI50: 2.05 µM (inactive)
Malme-3M
  GI50: 1.63 µM (inactive)
NCI-H23
  GI50: 1.25 µM (inactive)
HCT-15
  GI50: 1.47 µM
SK-MEL-28
  GI50: 1.63 µM (inactive)
RXF 393
  GI50: 1.95 µM (inactive)
RPMI-8226
  GI50: 3.05 µM (inactive)
A549
  GI50: 1.66 µM (inactive)

## CCOc1ccccc1/N=N/c1c(-c2ccccc2)nn(C(=O)CC(=O)Nc2cccc(Cl)c2)c1-c1ccccc1
OVCAR-8
  GI50: 63.5 µM (inactive)
NCI-H226
  GI50: 64.1 µM (inactive)
786-0
  GI50: 89.1 µM (inactive)
HCT-116
  GI50: 35.1 µM (inactive)
UACC-257
  GI50: 98.2 µM (inactive)
HT-29
  GI50: 30 µM (inactive)
SR
  GI50: 61 µM (inactive)
Malme-3M
  GI50: > 100 µM (inactive)
NCI-H23
  GI50: 61.8 µM (inactive)
SK-MEL-28
  GI50: 31.9 µM (inactive)
RXF 393
  GI50: 95.7 µM (inactive)
RPMI-8226
  GI50: 46.9 µM (inactive)
SF-268
  GI50: 29.2 µM (inactive)
A549
  GI50: 54 µM (inactive)
SK-OV-3
  GI50: > 100 µM (inactive)

## O=C(O)c1ccc(C2C(=O)N[C@@H]3CCC[C@H]23)cc1 (stereo partly specified)
OVCAR-8
  GI50: > 100 µM (inactive)
NCI-H226
  GI50: > 100 µM (inactive)
786-0
  GI50: > 100 µM (inactive)
HCT-116
  GI50: > 100 µM (inactive)
UACC-257
  GI50: > 100 µM (inactive)
HT-29
  GI50: > 100 µM (inactive)
Malme-3M
  GI50: > 100 µM (inactive)
NCI-H23
  GI50: > 100 µM (inactive)
HCT-15
  GI50: > 100 µM
SK-MEL-28
  GI50: > 100 µM (inactive)
RXF 393
  GI50: > 100 µM (inactive)
RPMI-8226
  GI50: > 100 µM (inactive)
SF-268
  GI50: > 100 µM (inactive)
A549
  GI50: > 100 µM (inactive)
SK-OV-3
  GI50: > 100 µM (inactive)

## CCN(CC)CCOc1ccc(CCc2cc(OC)c(OC)c(OC)c2)cc1
OVCAR-8
  GI50: 67.9 µM (inactive)
NCI-H226
  GI50: 45 µM (inactive)
786-0
  GI50: 37.1 µM (inactive)
HCT-116
  GI50: 32.5 µM (inactive)
UACC-257
  GI50: 27.9 µM (inactive)
HT-29
  GI50: 17.5 µM (inactive)
SR
  GI50: 31.3 µM (inactive)
Malme-3M
  GI50: 43.9 µM (inactive)
HCT-15
  GI50: 30.7 µM
SK-MEL-28
  GI50: 78 µM (inactive)
RXF 393
  GI50: 34.9 µM (inactive)
RPMI-8226
  GI50: 16.8 µM (inactive)
SF-268
  GI50: > 100 µM (inactive)
A549
  GI50: 47.3 µM (inactive)

## CCCN(CCC)c1c([N+](=O)[O-])cc(S(N)(=O)=O)cc1[N+](=O)[O-] [ORYZALIN]
OVCAR-8
  GI50: 19.1 µM (inactive)
NCI-H226
  GI50: 23.7 µM (inactive)
786-0
  GI50: 16.7 µM (inactive)
HCT-116
  GI50: 18 µM (inactive)
UACC-257
  GI50: 18.9 µM (inactive)
HT-29
  GI50: 18.5 µM (inactive)
SR
  GI50: 23.5 µM (inactive)
Malme-3M
  GI50: 17.7 µM (inactive)
NCI-H23
  GI50: 16.1 µM (inactive)
HCT-15
  GI50: 17.5 µM
SK-MEL-28
  GI50: 20.7 µM (inactive)
RPMI-8226
  GI50: 26.7 µM (inactive)
SF-268
  GI50: 18.3 µM (inactive)
A549
  GI50: 16.4 µM (inactive)
SK-OV-3
  GI50: 17.4 µM (inactive)

— ChEMBL document CHEMBL1201862, “PubChem BioAssay data set” (2004)
